From article PMC10794144, “A novel antibiotic class targeting the lipopolysaccharide transporter” (Nature, 2024)
Converted amounts (≈) assume the structure as drawn.

Legend:
E. coli ATCC 25922 = assay: microbe, parasite or virus in culture; details: Escherichia coli, ATCC25922
Summary of the method: (§1)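 Values come from CLSI-guided (M07, M100) broth microdilution in CAMHB. Endpoint: lowest concentration halting growth, judged by naked eye or by OD600 plateau.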

A. baumannii = assay: microbe, parasite or virus in culture
Summary of the method: as §1

With `CN1C(=O)[C@H](CCCCN)NC(=O)[C@H](CCCN)NCc2cccnc2Sc2c(Cl)ccc(-c3ccc(C(=O)O)cc3)c2CNC(=O)[C@@H]1Cc1c[nH]c2ccccc12` [RO7202110] the MIC (E. coli ATCC 25922) was greater than 64 µg/mL, the MIC range (A. baumannii; 10 MDR isolates, CAMHB, MCPs read at 80% growth inhibition) was ≤0.06 − 0.12 mg l^−1 and the MIC90 (A. baumannii; Acinetobacter baumannii) was 0.12 µg/mL (≈ 0.145 µM). For the same molecule, the MIC (A. baumannii; Acinetobacter baumannii, ATCC17978, ATCC 17978, CAMHB, one replicate, MCPs read at 80% growth inhibition) was no more than 0.06 µg/mL and the MIC (A. baumannii; Acinetobacter baumannii, ATCC19606, ATCC 19606, CAMHB, MCPs read at 80% growth inhibition) was no more than 0.06 µg/mL.
